Measurements from patent US20040138156A1, “Therapeutic regulation of deoxyribonuclease-1-like-3 activity” (priority 2002, published 2004).
Entries after “also recorded” stand apart in the source; their conditions may differ.

What was measured:
D1L3 = conditions: cited from earlier work
HeLa cells = assay: BT assay: liposomal N1-eGFP transfection of HeLa cells in DNASE-conditioned media, GFP immunoblot; type: cell-based; conditions: equivalent doses of Ifn-γ, no macrophages
Method: In the main assay, an eukaryotic marker such as green fluorescent protein (GFP) expression plasmid complexed with a lipid reagent is transfected into HeLa cells incubated in control media, D1L3-conditioned media, or D1-conditioned media (FIG. 4). The assay is not limited to the use of GFP as a marker, but could use any of many expressed biomarkers encoded by nucleotides that can be assayed either immunochemistry, fluorescent detection, or enzymatic detectection, and these include but are not circumscribed to luciferase, chloramphenicol acetyl-transferase, antibiotic or chemical resistance genes, Beta-galactosidase, FLAG-, myc-hemaglutinnin-, or other epitope tagged molecules, as well as other markers of gene or nucleotide transduction. The endpoint of the assay is the detection of a synthesized protein, but could easily have been the detection of a transcribed gene product, since the assay ultimately measures the ability of D1L3 added the media/milieu overlaying the cells to block the ultimate association of an expressible plasmid with the transcriptional machinery.
Transfection Reagents and Resistance Assays. Lipofection of respective pcDNA3.1-D1 or -D3 ([…] purified with Promega Wizard Plus DNA system) was performed independently into 1-2 million HeLa cells, which produce a low background of secreted nuclease activity, when grown in DMEM with 10% FCS (LifeTech) in 6 well culture plates (Becton-Dickinson). […] Media of the transfected cells were conditioned for 36-48 hours and served as source of the respective enzymes. Nuclease activity in conditioned supernatant was measured by RDAs, zymograms and by testing activity against supercoiled pBluescript (Stratagene).
To test for the ability of the nucleases to block transfection, the media in individual wells of naive HeLa cells were replaced with conditioned media, and cells transfected with […] of N1-eGFP plasmid (Clontech) using various transfection reagents (FIG. 11) and their respective protocols. GFP expression by immunoblot directly correlated with transfection efficiency in present experiments. Thus, transfection efficiency was compared by densitometric analysis of GFP immunoblots.
GFP expression was also examined by fluorescent microscopy using a FITC filter. For microscopy, cells were fixed for 5 minutes in 4% paraformaldehyde dissolved into 1% PBS.
Antibody Reagents and Immunoblotting. After 24-36 hours, cells transfected with N1-eGFP were lysed in SDS-buffer and immunoblotted for expression with anti-GFP at 1:5000 dilution (Clontech). To confirm nearly equal protein loading per lane, anti-β-actin monoclonal antibody at 1:7,000 dilution (Sigma) were prepared. For immunoblots, […] protein was eletrophoretically separated by 12% SDS-PAGE gel, followed by electrotransfer to Immobilon-P membranes (Millipore) for expression studies. Immunoblotting was performed using ECL detection (Amersham).
Transfection efficiency was compared, wherever possible, by pixel densitometry of the scanned images using Scion Image 4.02 software.

bone marrow macrophages = assay: Induction of D1L3 in cultured bone marrow macrophages (anti-D1L3 immunoblot, RDA, zymogram); type: cell-based, C57BL mice; conditions: 100 U/ml for the interferons
Method: FIG. 22. Normal and induced expression of D1L3 in murine macrophages. […] In anti-D1L3 blots of cell lysates, the protein is seen both as a ^˜34 kDa uncleaved molecule and a ^˜28 kDa cleaved molecule. […] Cells were plated on serum-coated tissue culture dishes and incubated overnight, the next morning, non-adherent cells (N) were rinsed vigorously with PBS 1×, and both adeherent (A) and non-adherent cells (N) from C57BL, NZB/W, BXSB, and MRL were lysed and immunoblotted with anti-D1L3. While the ^˜34 kDa size band consistent with uncleaved D1L3 is present in both adherent and non-adherent, the cleaved form (^˜28 kDa) is present almost exclusively in the adherent population of presumed macrophages. Also noticable are the higher levels of expression of D1L3 in the 3 latter lupus strains. Panel B: Untreated bone marrow macrophages from NZB/WF1 mice have a much higher baseline expression expression of D1L3 than C57BL macrophages.
Induction is present in macrophages from both strain though the absolute level of induction appears greater in C57BL than in the SLE-prone NZB/W F1 strain. NZB/W protein loads in Ifn-γ-negative lane is slightly underloaded relative to actin. Panel C: Bone marrow macrophages isolated from bone marrow (via adherence) from MRL and C57BL mice, and cultured for 2 days in vitro, were induced by Ifn-γ. […] No induction of D1L3, RDA-DNASE, or zymographic DNASE activity is evident upon tratement with 100 U/ml of Ifn-alpha. […] Panel D: Bone marrow macrophages from C57BL and MRL mice cultured for 7 days in the presence of GM-CSF were induced with Ifn-γ, again showing the higher baseline levels of 28 kDa enzyme in the lupus prone strain, and in C57BL showing induction of levels aftern Ifn-γ. […]
(§1) Assays of Murine Cells. […] Splenocytes were counted using a hemochromocytometer, and plated at 2 million cells/ml on plastic 6-well Falcon tissue culture dishes (Becton Dickinson) in RPMI with 10% FCS. […]

[1] = test system: bone marrow-derived macrophages; assay: BT activity of media conditioned by Ifn-γ treated bone marrow-derived macrophages, overlaid on HeLa cells; type: cell-based, C57BL mice; conditions: 100 U/ml; b134: 1000 U/ml vs 100U/ml
Excerpt: FIG. 29. Media conditioned by Ifn-γ treated macrophages from C57BI, but not NZB/W F1 mice is able to confer an in vitro barrier to liposomal gene transduction (BT). Panel A: Media conditioned by interferon-g (Ifn-γ) treated bone marrow-derived macrophages from C57 BL confers a barrier to liposomal transfection to HeLa. […] Panel B: As interferon dose increased, the ability by C57BL macrophages to confer a barrier to transfection increased. In the absence of Ifn-γ, macrophages confer a weaker barrier. Panel C: Interferon gamma induces both DNASE activity by RDA and a DNASE band compatible with DNASE1L3 at 28 kD, plus induces a BT activity. Samples were from macrophages from two C57BL mice (B1 and B2). In the left register is pre- and post interferon RDAs, in the middle register, pre and post interferon, and in the right register are the BT assays (GFP immunoblots of tranfected HeLa cells) on HeLa cells, including HeLa cells treated directly with interferon gamma for 48 hours. Media conditioned for 48 hours. Panel D: BT activity in macrophage-conditioned media from NZB/W F1 (NZ) or C57BL (BL). […]
as §1

Molecule	effect on D1L3 DNASE activity (D1L3)	BT of HeLa cells treated with Ifn-γ or of media conditioned by them (HeLa cells)	induction of D1L3 in macrophages (bone marrow macrophages)	BT activity of media conditioned by treated macrophages [1]
[Zn+2] [zinc]	block D1L3 DNASE activity			
O=C(O)CN(CCN(CC(=O)O)CC(=O)O)CC(=O)O [EDTA]	block D1L3 DNASE activity			
Ifn-γ: interferon-gamma (Genzyme), macrophage activator		neither confer nor possess a BT	inducible; also recorded: significant induction of D1L3 levels	confers BT; also recorded: Increased BT activity
